Experimental data published in patent publication EP1388586A2, “Identification of broadly reactive DR restricted epitopes” (priority 1998, dated 1999).
Like-named read-outs stand apart in the source and are kept apart here. Ends that are not written are not given here. Peptide text beside a SMILES is read from it.

Biological target: T1, DRB1*0301 (DR3w17) (Homo sapiens, UniProt P01903+P01911, A100K/A102G/A103R/A169T/F55Y/I96L/K41T/L162R/M171V/P40S/Q125H/Q178H/Q39Y/R42S/S66N/T106N/T262R/W38E/Y61H)
T1 construct: used as sources of human HLA class II molecules; endogenous in cells; host or cells: MAT (EBV-transformed homozygous B cell line)
T1 sequence (P01903 26-254, other chains not shown): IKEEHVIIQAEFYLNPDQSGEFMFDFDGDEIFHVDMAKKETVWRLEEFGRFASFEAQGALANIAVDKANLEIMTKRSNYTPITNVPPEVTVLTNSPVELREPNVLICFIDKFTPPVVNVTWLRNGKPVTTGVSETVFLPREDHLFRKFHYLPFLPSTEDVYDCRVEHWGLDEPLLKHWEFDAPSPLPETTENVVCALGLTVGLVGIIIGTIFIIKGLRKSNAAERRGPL
Test: Class II peptide-binding assay, DR3 (pH 4.5);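 further: unlabeled peptide competing with a radiolabeled probe peptide for binding to affinity-purified HLA-DR3, IC50 regarded as an approximation of Kd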
Conditions: Table VIII

[1] = read-out: In IC50 Format DR3 nM, values in parentheses read as lower bounds

Molecule	IC50 [1]	IC50 (read-out: In IC50 Format DR3)
KNGVVKDVFAFGGAV [Peptide 39.0381]	> 120 µM	–
CC(C)C[C@H](NC(=O)[C@@H]1CCCN1C(=O)CNC(=O)[C@@H](N)CCCCN)C(=O)N1CCC[C@H]1C(=O)N[C@H](C(=O)N[C@@H](CC(=O)O)C(=O)N[C@@H](CS)C(=O)N[C@@H](CS)C(=O)N[C@@H](Cc1c[nH]cn1)C(=O)N[C@@H](CCC(=O)O)C(=O)N[C@@H](CCC(N)=O)C(=O)N[C@@H](CS)C(=O)N[C@@H](C)C(=O)N[C@@H](C)C(=O)O)[C@@H](C)O [Peptide 39.0344]	> 111 µM	–
CC(C)C[C@H](NC(=O)[C@@H]1CCCN1C(=O)[C@@H](NC(=O)[C@@H](NC(=O)[C@@H]1CCCN1C(=O)[C@H](CC(=O)O)NC(=O)[C@H](CCC(=O)O)NC(=O)[C@H](CO)NC(=O)[C@H](Cc1ccc(O)cc1)NC(=O)[C@H](CCCNC(=N)N)NC(=O)[C@H](CCC(N)=O)NC(=O)[C@@H](N)CC(C)C)[C@@H](C)O)C(C)C)C(=O)N1CCC[C@H]1C(=O)N[C@@H](CO)C(=O)N[C@@H](CCC(=O)O)C(=O)O [Peptide 39.0379]	11.1 µM	–
CC(C)C[C@H](NC(=O)[C@H](CCCCN)NC(=O)[C@H](Cc1c[nH]c2ccccc12)NC(=O)[C@H](CC(C)C)NC(=O)[C@H](CC(=O)O)NC(=O)[C@H](CO)NC(=O)[C@H](Cc1ccccc1)NC(=O)[C@@H](NC(=O)[C@H](CCC(=O)O)NC(=O)[C@H](CCC(N)=O)NC(=O)[C@H](CO)NC(=O)[C@H](CC(C)C)NC(=O)[C@@H]1CCCN1C(=O)[C@@H]1CCCN1C(=O)[C@@H](N)CCC(=O)O)[C@@H](C)O)C(=O)O [Peptide 39.0409]	–	> 120 µM
SLAFLPESFDGDPAS [Peptide 39.0349]	> 111 µM	–
SDVFDGDLGMGAAKG [Peptide 39.0378]	> 120 µM	–

Continued, values first:

IC50 [1]	IC50 (read-out: In IC50 Format DR3)	Molecule
50.8 µM	–	CC(C)C[C@H](NC(=O)[C@H](Cc1ccc(O)cc1)NC(=O)[C@H](CC(N)=O)NC(=O)[C@@H](N)Cc1ccc(O)cc1)C(=O)N[C@@H](CO)C(=O)N[C@H](C(=O)N[C@@H](CC(=O)O)C(=O)N[C@H](C(=O)NCC(=O)N[C@@H](CO)C(=O)N[C@@H](CS)C(=O)N[C@H](C(=O)N[C@@H](CC(C)C)C(=O)N[C@H](C(=O)N[C@@H](CS)C(=O)O)C(C)C)[C@@H](C)O)C(C)C)[C@@H](C)O [Peptide 39.0346] (H-YNYLSTDVGSCTLVC-OH)
–	> 120 µM	CC[C@H](C)[C@H](NC(=O)[C@H](CCC(N)=O)NC(=O)[C@H](CC(C)C)NC(=O)[C@@H](NC(=O)[C@H](Cc1ccccc1)NC(=O)[C@H](Cc1ccc(O)cc1)NC(=O)[C@H](CCC(=O)O)NC(=O)CNC(=O)[C@H](CC(=O)O)NC(=O)[C@H](CC(C)C)NC(=O)[C@@H]1CCCN1C(=O)[C@H](CCCCN)NC(=O)[C@@H](N)CCCCN)[C@@H](C)O)C(=O)N[C@@H](CCCNC(=N)N)C(=O)NCC(=O)O [Peptide 39.0422]
> 111 µM	–	CSCC[C@H](NC(=O)[C@H](CC(=O)O)NC(=O)[C@H](CC(C)C)NC(=O)[C@H](Cc1c[nH]cn1)NC(=O)[C@@H](NC(=O)[C@H](CCC(=O)O)NC(=O)[C@@H]1CCCN1C(=O)[C@H](CO)NC(=O)[C@H](C)NC(=O)[C@@H]1CCCN1C(=O)[C@H](CC(C)C)NC(=O)[C@@H](N)CCCNC(=N)N)[C@@H](C)O)C(=O)N[C@@H](CC(C)C)C(=O)N[C@@H](CCCNC(=N)N)C(=O)N[C@@H](Cc1c[nH]cn1)C(=O)O [Peptide 39.0338]
